Measured values: ChEMBL document CHEMBL1130567, “A simplified template approach towards the synthesis of a potent beta-3 adrenoceptor agonist at the human receptor” (Bioorg Med Chem Lett, 1997)

Assays:
Type in all cases: functional, cell-based
[1] = target: T1, Beta-3 adrenergic receptor (Homo sapiens, UniProt P13945); experiment: Beta-3 agonist efficacy in an adenylate cyclase assay performed on chinese hamster ovary cells transfected with human Beta-3 adrenergic receptor; inactive
[2] = target: T1, Beta-3 adrenergic receptor; experiment: Agonist efficacy for human Beta-3 adrenergic receptor expressed in chinese hamster ovary cells
[3] = target: T1, Beta-3 adrenergic receptor; experiment: Beta-3 agonist efficacy in an adenylate cyclase assay performed on chinese hamster ovary cells transfected with human Beta-3 adrenergic receptor; Inactive

T1 sequence (P13945 whole entry): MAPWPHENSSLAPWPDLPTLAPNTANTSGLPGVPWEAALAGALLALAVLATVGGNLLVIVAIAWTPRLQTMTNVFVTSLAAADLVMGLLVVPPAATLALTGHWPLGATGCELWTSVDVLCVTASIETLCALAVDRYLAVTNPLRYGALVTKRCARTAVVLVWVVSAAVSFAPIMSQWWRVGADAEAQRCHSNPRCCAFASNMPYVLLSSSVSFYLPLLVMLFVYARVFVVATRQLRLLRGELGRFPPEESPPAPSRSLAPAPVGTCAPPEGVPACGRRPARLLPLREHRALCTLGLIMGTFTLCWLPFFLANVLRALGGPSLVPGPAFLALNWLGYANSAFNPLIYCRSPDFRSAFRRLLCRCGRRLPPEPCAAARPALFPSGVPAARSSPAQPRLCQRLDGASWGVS

| SMILES | EC50 [1] | EC50 [2] | other results |
| --- | --- | --- | --- |
| COc1ccc(CCNC[C@@H](O)COc2ccc(O)cc2CO)cc1 | Not Active |  |  |
| CCCCCCP(=O)(O)COc1ccc(CCNC[C@H](O)COc2ccc(O)c3c2CCC(=O)N3)cc1 |  | 0.29 µM |  |
| C[C@H](Cc1ccc(OCP(=O)(O)c2ccccc2)cc1)NC[C@H](O)COc1ccc(O)c(NS(C)(=O)=O)c1 |  | 0.12 µM |  |
| CC(C)(C)NCC(O)COc1cccc2[nH]c(=O)[nH]c12 (stereo unspecified) [CGP-12177] |  | 2 µM |  |
| COc1ccc(CCNC[C@@H](O)COc2cccc3[nH]c(C(F)(F)F)nc23)cc1 | Not Active |  |  |
| COc1ccc(CCNC[C@H](O)COc2cccc(O)c2O)cc1 |  |  | EC50 [3]: Not Active |
| COc1ccc(CCNC[C@@H](O)COc2cccc3[nH]c(=O)[nH]c23)cc1 |  | 2.2 µM |  |
| COc1ccc(CCNC[C@@H](O)COc2cccc3nc(O)ccc23)cc1 | Not Active |  |  |
| COc1ccc(CCNC[C@@H](O)COc2cc(O)cc(CO)c2)cc1 | Not Active |  |  |
| COc1ccc(CCNC[C@@H](O)COc2ccccc2O)cc1 | Not Active |  |  |

Second part, led by results:

| EC50 [1] | EC50 [2] | SMILES | other results |
| --- | --- | --- | --- |
| Not Active |  | COc1ccc(CCNC[C@@H](O)COc2cccc3c2CCC(=O)N3)cc1 |  |
|  | 1.1 µM | COc1ccc(CCNC[C@@H](O)COc2ccc(F)c(O)c2)cc1 |  |
|  | 0.82 µM | COc1ccc(CCNC[C@@H](O)COc2ccc(O)c(O)c2)cc1 |  |
|  | 0.4 µM | COc1ccc(CCNC[C@@H](O)COc2ccc(O)c(NS(C)(=O)=O)c2)cc1 |  |
| Not Active |  | COc1ccc(CCNC[C@@H](O)COc2ccc(F)c(CO)c2)cc1 |  |
|  | 7.9 µM | COc1ccc(CCNC[C@@H](O)COc2ccc(O)c(F)c2)cc1 |  |
|  | 0.56 µM | COc1ccc(CCNC[C@@H](O)COc2ccc(O)c3c2CCC(=O)N3)cc1 |  |
| Not Active |  | COc1ccc(CCNC[C@@H](O)COc2ccc3c(c2)NC(=O)CO3)cc1 |  |
|  | 2 µM | COc1ccc(CCNC[C@@H](O)COc2cccc(O)c2)cc1 |  |
|  | 4.7 µM | COc1ccc(CCNC[C@@H](O)COc2ccc(O)c(CO)c2)cc1 |  |
|  | 1 µM | COc1ccc(CCNC[C@@H](O)COc2ccc(O)cc2)cc1 |  |
